Assay [1] has as its target T1, IRAK3 (Homo sapiens, UniProt Q9Y616).
T1 construct: IRAK Endogenous HTRF Degradation Assay; endogenous in cells
T1 sequence (Q9Y616 1-596): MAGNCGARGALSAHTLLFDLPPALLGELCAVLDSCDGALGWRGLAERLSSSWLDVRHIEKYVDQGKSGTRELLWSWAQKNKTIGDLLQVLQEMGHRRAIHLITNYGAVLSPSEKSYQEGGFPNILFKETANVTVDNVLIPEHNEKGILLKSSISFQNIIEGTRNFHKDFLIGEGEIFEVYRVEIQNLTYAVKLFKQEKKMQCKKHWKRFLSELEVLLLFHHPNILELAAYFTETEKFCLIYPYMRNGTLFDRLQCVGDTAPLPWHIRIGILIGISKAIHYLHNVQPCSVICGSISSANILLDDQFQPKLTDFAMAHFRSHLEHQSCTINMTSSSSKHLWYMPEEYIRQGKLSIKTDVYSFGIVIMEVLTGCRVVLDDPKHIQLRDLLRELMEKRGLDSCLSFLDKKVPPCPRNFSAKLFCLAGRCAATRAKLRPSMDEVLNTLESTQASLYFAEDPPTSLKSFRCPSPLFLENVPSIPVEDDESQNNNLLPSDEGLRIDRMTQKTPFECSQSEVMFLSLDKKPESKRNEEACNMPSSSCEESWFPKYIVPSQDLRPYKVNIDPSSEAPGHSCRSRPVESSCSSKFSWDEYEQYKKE
Kind of assay: IRAK endogenous HTRF degradation assay (Total-IRAK3 HTRF kit). In kind it is cell-based. The settings on record: overnight incubation, lowest percentage of protein remaining. The method, then: Example B2. IRAK Endogenous HTRF Degradation Assay
Cells (~50 k) were plated in Cisbio 96-well low volume white plates (Cisbio: cat #66PL96005). Compounds were dissolved in DMSO and a 3-fold serial dilution was performed using a TECAN D300E. Cells were incubated with the compound overnight. Total-IRAK3 HTRF kit from Cisbio was used for degradation analysis (Cisbio: 63ADK101PEH). Cryptate and D2 antibodies were diluted in Detection buffer as per manufacturers recommendation. Then 2 μL of each solution was added to 16 μL lysate. Buffer control (lysis buffer detection buffer), Cryptate control (lysis buffer+cryptate antibody+detection buffer), and Negative control (lysis buffer+cryptate antibody+D2 antibody) were made as per manufacturers recommendation. Post incubation with antibodies the HTRF signal was measured using a Perkin Elmer Envision reader and the HTRF signal was calculated using formula: (Emission at 665 nm/Emission at 615 nm)*10,000. All HTRF values were normalized to the average value of DMSO. The average value of the DMSO control wells were set to equal 100% of the relative IRAK3 protein levels. Normalized luminescence values were plotted on a graph as a function of compound concentration. Compound concentration was plotted on the x-axis and the corresponding normalized IRAK3 protein levels on the y-axis. The EC50 value (the half-maximum effective concentration) of a compound for the degradation of the IRAK3 was calculated using a four-parameter logistic model (sigmoidal dose-response model) (FIT=(A+{(B−A)/1+[(C/x)D]})) where C is the inflection point (EC50), D is the […], and A and B are the low and high limits of the fit, respectively). The Ymin was calculated by determining the lowest percentage of target protein remaining following compound treatment. Dmax was calculated from Ymin (% Dmax=100−Ymin).
Using these assays, IC50, Dmax, EC50, and DC50 values of the following compounds were determined. Dmax is defined as the maximum percent degradation achieved and DC50 is the concentration at which 50% degradation is achieved.
(In TR-FRET formats the signal depends on donor and acceptor labels being close together.)

The next assay concerns the target T2, IRAK3-ePL (Homo sapiens, UniProt Q9Y616).
T2 construct: expressed in transfected cells; host or cells: 293T CRBN OE/GSPT1 G575N KI cells, lentiviral transduction, puromycin selected
Briefly: IRAK3-ePL overexpressing degradation assay (InCELL Hunter luminescence, dose response). In kind it is cell-based. Particulars: for IRAK3 ePL degradation Ymin: lowest percentage of target protein remaining following compound treatment; for DC50: read-out: IRAK3 ePL degradation EC50. On the procedure: Example B1. IRAK3-ePL Overexpressing Degradation Assay
Stable cell lines were generated by the following protocol. 3×10^5 Lenti-X 293T cells (Clonetech) were plated in 0.8 mL of media in a 12-well plate and incubated overnight at 37° C./5% CO2. Packaging plasmid (0.4 μg, pMD), envelope plasmid (0.4 μg, pSP), and lentiviral transfer IRAK3-ePL plasmid (0.8 μg, TRAK3 sequence NM_007199.3) were mixed in 0.1 mL of Opti-MEM and incubated for 5 min. Simultaneously, 2.4 μL of Lipofectamine 2000 (Invitrogen) was added to 0.1 mL of Opti-MEM (Gibco) and incubated for 5 min. The plasmid DNA and lipofectamine were combined and the mixture was allowed to incubate for 20 min.DNA:Lipofectamine Opti-MEM mixtures were then added to previously plated cells dropwise and the cells were incubated for ~16 h at 37° C./5% CO2. Following incubation, the media was removed and 1.2 mL of fresh media was added per well. Lenti-X 293T cells were incubated for ~30 h at 37° C./5% CO2. […] Following incubation, media was removed from the Lenti-X 293T wells and passed through a […] filter. Part of the viral supernatant was used to transduce cells and the rest was stored at −80° C. Viruses were then added individually (0.5 mL virus) to each well of the 293T^CRBN OE/GSPT1 G575N KI cells, followed by addition of polybrene (10 mg/mL Millipore) to each well at a final concentration of 5.0 μg/mL. Cells were incubated for ~24 h at 37° C./5% CO2. After aspirating media off plates, cells were washed with DPBS, trypsinized and plated in a 10 cm dish in 15 mL of media and […] puromycin. Following incubation of cells for ~72 h at 37° C./5% CO2, media was aspirated off plates, and cells were washed with DPBS and trypsinized. The cells were plated in a 15 cm dish in 40 mL of media with 1.0 μg/mL Puromycin (Gibco) and incubated for ~72 h at 37° C./5% CO2. Following incubation, media was removed and cells were washed with DPBS and trypsinized. The majority of cells were resuspended in Invitrogen freezing media and stored away (~6-8×10^6 cells/vial).
IRAK3-ePL cellular dose response curve degradation assays were performed by the following protocol. Compounds to be tested were dispensed into a white 384-well tissue-culture treated plate using an acoustic liquid handler. Dilutions were prepared based on a 25 μL assay volume in duplicate 10 point 3-fold serial dilutions starting with a 10 μM dose. Negative control wells were included, which only contain 0.2% DMSO to calculate 100% signal. Positive control wells containing 30 μM Ataluren (luciferase inhibitor) were included to calculate the background signal level. All wells were backfilled to a final DMSO concentration of 0.2% to ensure DMSO uniformity across wells. IRAK3-ePL expressing cells (IRAK3-ePL Lenti-X 293T^CRBN/GSPT1 G575N) were washed, trypsinized, counted, and resuspended in fresh DMEM (Gibco) to give a cell concentration of 200,000 cells/mL. 25 μL of cells (5,000 cells/well) were dispensed into the wells of the 384-well plate prespotted with compounds in the previous step and incubated overnight at 37° C./5% CO2. Following incubation, the 384-well plate was taken out of the incubator and left at room temperature for 30 min. InCELL hunter reagent was prepared according to manufacturer's instructions (EA reagent, lysis buffer, and substrate reagent in a 1:1:4 ratio, Cat #96-0002, DiscoverX), which was added to the 384-well plate 25 μL per well. Following the incubation of the plate for 1 h at room temperature, the luminescence signal was read using a ViewLux plate reader. Data was processed and analyzed in ActivityBase software. In short, the average luminescence values of the positive control wells were subtracted from the rest of the wells for background correction, and all luminescence values were normalized to the DMSO control wells. The average value of the DMSO control wells was set to equal 100% of the relative IRAK3-ePL protein levels. […]

The target in assay [2] is T1, IRAK3. Briefly: IRAK3 biochemical binding assay (LanthaScreen Eu Kinase Binding, TR-FRET). In a few lines: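 TR-FRET tracer-displacement binding with 10 nM IRAK3, 2 nM Eu-anti-GST antibody and 10 nM tracer in 50 mM HEPES pH 7.4, MgCl2, 1 mM EGTA, 0.01% Brij-35. Compounds in 3-fold dilutions, 1 h at room temperature. 665/615 nm ratio gave % inhibition; IC50 and Hill slope from dose-response fit.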

As to `O=C1CCC(N2C(=O)c3ccc(N4CCN(C(=O)CN5CCC(n6cc(Nc7ncc(-c8ccc9c(c8)NC(=O)CO9)n8ccnc78)cn6)CC5)CC4)cc3C2=O)C(=O)N1` (stereo not shown) [Compound 21, 2-(2,6-dioxopiperidin-3-yl)-5-(4-(2-(4-(4-((5-(3-ox0-3,4-dihydro-2H-benzo[b][1,4]oxazin-6-yl)imidazo[1,2-a]pyrazin-8-yl)amino)-1H-pyrazol-1-yl)piperidin-1-yl)acetyl)piperazin-1-yl)isoindoline-1,3-dione], at IRAK3 [1], the “IRAK3 HTRF degradation Ymin” value came to 25%.
On the same count and under the same terms, for `Cc1cc(-c2cnc(Nc3cnn(C4CCN(C(=O)CN5CCN(c6ccc(C7CCC(=O)NC7=O)cc6)CC5)CC4)c3)c3nccn23)c(F)cc1F` (stereo not shown) [Compound 23, 3-(4-(4-(2-(4-(4-((5-(2,4-difluoro-5-methylphenyl)imidazo[1,2-a]pyrazin-8-yl)amino)-1H-pyrazol-1-yl)piperidin-1-yl)-2-oxoethyl)piperazin-1-yl)phenyl)piperidine-2,6-dione] the value was 17%.
With `Cc1cc(-c2cnc(Nc3cnn([C@@H]4CCN(CCN5CCN(c6ccc(C7CCC(=O)NC7=O)cc6)C[C@H]5C)[C@H](C)C4)c3)c3nccn23)c(F)cc1F` (stereo partly drawn) [Compound 29, 3-(4-((R)-4-(2-((2R,4R)-4-(4-((5-(2,4-difluoro-5-methylphenyl)imdazo [1,2-a]pyrazin-8-yl)amino)-1H-pyrazol-1-yl)-2-methylpiperidin-1-yl)ethyl)-3-methylpiperazin-1-yl)phenyl) piperidine-2,6-dione], the “IRAK3 HTRF degradation Ymin” value at IRAK3 [1] is on record as 14%. Moreover, on IRAK3-ePL, the “IRAK3 ePL degradation Ymin” value is reported as 24% and the DC50 came out at 0.51 nM.
On the same counts, the results for `Cc1cc(-c2cnc(Nc3cnn([C@@H]4CCN(CCN5CCN(c6ccc(C7CCC(=O)NC7=O)cc6)CC5)[C@H](C)C4)c3)c3nccn23)c(F)cc1F` (stereo partly drawn) [Compound 30, 3-(4-(4-(2-((2R,4R)-4-(4-((5-(2,4-difluoro-5-methylphenyl)imdazo [1,2-a]pyrazin-8-yl)amino)-1H-pyrazol-1-yl)-2-methylpiperidin-1-yl)ethyl)piperazin-1-yl)phenyl) piperidine-2,6-dione] are 14%, 24% and 0.51 nM.
On the same counts, the results for `Cc1ccc(F)c(-c2cnc(Nc3cnn(C4CCN(CCN5CCN(c6ccc(C7CCC(=O)NC7=O)cc6)CC5)CC4)c3)c3nccn23)c1` (stereo not shown) [Compound 36, 3-(4-(4-(2-(4-(4-((5-(2-fluoro-5-methylphenyl)imdazo [1,2-a]pyrazin-8-yl)amino)-1H-pyrazol-1-yl)piperidin-1-yl)ethyl)piperazin-1-yl)phenyl) piperidine-2,6-dione] are 9.8%, 24% and 1.1 nM.
Usually IC50 stands for the concentration that gives 50% inhibition. As to `Cc1ccc(-c2cnc(Nc3cnn(C4CCN(CCN5CCN(c6ccc(C7CCC(=O)NC7=O)cc6)CC5)CC4)c3)c3nccn23)cc1` (stereo not shown) [Compound 78, 3-(4-(4-(2-(4-(4-((5-(p-tolyl)imidazo[1,2-a]pyrazin-8-yl)amino)-1H-pyrazol-1-yl)piperidin-1-yl)ethyl)piperazin-1-yl)phenyl) piperidine-2,6-dione], the half-inhibitory concentration (IC50) at IRAK3 [2] was 27 nM. For the same molecule, on IRAK3-ePL, the “IRAK3 ePL degradation Ymin” value is 29% and the DC50 is 5.5 nM.
For `Cc1ccccc1-c1cnc(Nc2cnn(C3CCN(CCN4CCN(c5ccc(C6CCC(=O)NC6=O)cc5)CC4)CC3)c2)c2nccn12` (stereo not shown) [Compound 79, 3-(4-(4-(2-(4-(4-((5-(o-tolyl)imidazo[1,2-a]pyrazin-8-yl)amino)-1H-pyrazol-1-yl)piperidin-1-yl)ethyl)piperazin-1-yl)phenyl) piperidine-2,6-dione] the same measures were 260 nM, 29% and 29 nM.
Regarding `CS(=O)(=O)c1ccccc1-c1cnc(Nc2cnn(C3CCN(CCN4CCN(c5ccc(C6CCC(=O)NC6=O)cc5)CC4)CC3)c2)c2nccn12` (stereo not shown) [Compound 83, 3-(4-(4-(2-(4-(4-((5-(2-(methylsulfonyl)phenyl)imidazo[1,2-a]pyrazin-8-yl)amino)-1H-pyrazol-1-yl)piperidin-1-yl)ethyl)piperazin-1-yl)phenyl) piperidine-2,6-dione], the IC50 on IRAK3 [2] came to 1600 nM. The “IRAK3 ePL degradation Ymin” value on IRAK3-ePL came out at 90%.

The record behind these values is patent US20260216347A1, “Substituted Imidazo-Based Compounds as Ligand Directed Degraders of IRAK3” (Celgene Corporation, priority 2022, published 2026).
